# Like-named read-outs stand apart in the source and are kept apart here.
# Assays:
# hCA II [1] = biological target: T1, hCA II (Homo sapiens, UniProt P00918); set-up: method as in PMID 29197732; conditions: reference compounds; read-out: Inhibition data (Ki) hCA II; cited from earlier work
# T1 construct: made in house
# hCA I [2] = biological target: T2, hCA I (Homo sapiens, UniProt P00915); set-up: method as in PMID 29197732; conditions: reference compounds; read-out: Inhibition data (Ki) hCA I; cited from earlier work
# T2 construct: made in house
# hCA XII = biological target: T3, hCA XII (Homo sapiens, UniProt O43570); assay: stopped-flow CO2 hydrase assay, hCA XII; format: biochemical; conditions: for Ki: recombinant hCA XII, stopped-flow CO2 hydration, 15 min preincubation, errors ± 10%, 3 assays, read-out: Inhibition data (Ki) hCA XII
# T3 construct: made in house
# Protocol: (§1) An applied photophysics stopped-flow instrument has been used for assaying the CA catalysed CO2 hydration activity. Phenol red (at a concentration of 0.2 mM) has been used as an indicator, working at the absorbance maximum of 557 nm, with 10–20 mM Hepes (pH 7.5) or Tris (pH 8.3) as buffers, and 20 mM Na2SO4 or 20 mM NaClO4 (for maintaining constant the ionic strength), following the initial rates of the CA-catalysed CO2 hydration reaction for a period of 10–100 s. The CO2 concentrations ranged from 1.7 to 17 mM for the determination of the kinetic parameters and inhibition constants. For each inhibitor, at least six traces of the initial 5-10% of the reaction have been used for determining the initial velocity. The uncatalyzed rates were determined in the same manner and subtracted from the total observed rates. Stock solutions of inhibitor (10 mM) were prepared in distilled-deionized water and dilutions up to 0.01 nM were done thereafter with distilled-deionized water. Inhibitor and enzyme solutions were preincubated together for 15 min at room temperature prior to assay to allow for the formation of the E–I complex. The inhibition constants were obtained by non-linear least-squares methods using PRISM 3, as reported earlier and represent the mean from at least three different determinations. CA isoforms were recombinant ones obtained as reported earlier by this group.
# (§2) This small series of coumarin derivatives 7–11, 15–17 were subjected to the stopped-flow CO2 hydrase assays to evaluate the binding affinity against the tumour-associated hCA IX and XII over ubiquitous isoforms hCA I and II.
# hCA I [3] = biological target: T2, hCA I; assay: stopped-flow CO2 hydrase assay, hCA I; format: biochemical; conditions: recombinant hCA I; stopped-flow CO2 hydration; 15 min preincubation; errors ± 10%, 3 assays; read-out: Inhibition data (Ki) hCA I
# Protocol: as §1, §2
# hCA IX = biological target: T4, hCA IX (Homo sapiens, UniProt Q16790); assay: stopped-flow CO2 hydrase assay, hCA IX; format: biochemical; conditions: recombinant hCA IX; stopped-flow CO2 hydration; 15 min preincubation; errors ± 10%, 3 assays; read-out: Inhibition data (Ki) hCA IX
# T4 construct: made in house
# Protocol: as §1, §2
# hCA II [4] = biological target: T1, hCA II; assay: stopped-flow CO2 hydrase assay, hCA II; format: biochemical; conditions: recombinant hCA II; stopped-flow CO2 hydration; 15 min preincubation; errors ± 10%, 3 assays; read-out: Inhibition data (Ki) hCA II
# Protocol: as §1, §2
# T3 sequence (O43570 25-354): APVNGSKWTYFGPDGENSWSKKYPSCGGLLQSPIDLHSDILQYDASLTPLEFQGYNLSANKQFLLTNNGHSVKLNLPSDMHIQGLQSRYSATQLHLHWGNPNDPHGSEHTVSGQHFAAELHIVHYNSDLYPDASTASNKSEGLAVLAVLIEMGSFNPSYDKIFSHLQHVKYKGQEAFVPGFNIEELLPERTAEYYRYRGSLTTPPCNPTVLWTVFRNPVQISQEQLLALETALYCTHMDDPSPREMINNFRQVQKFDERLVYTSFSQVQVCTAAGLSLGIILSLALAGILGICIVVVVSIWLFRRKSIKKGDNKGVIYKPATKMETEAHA
# T2 sequence (P00915 whole entry): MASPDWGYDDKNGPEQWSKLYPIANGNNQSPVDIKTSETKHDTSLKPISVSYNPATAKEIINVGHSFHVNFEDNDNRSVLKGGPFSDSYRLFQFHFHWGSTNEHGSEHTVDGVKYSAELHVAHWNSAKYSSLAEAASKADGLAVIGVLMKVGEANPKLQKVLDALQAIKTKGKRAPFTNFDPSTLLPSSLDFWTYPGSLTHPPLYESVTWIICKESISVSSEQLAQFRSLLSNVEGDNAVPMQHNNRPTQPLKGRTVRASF
SMILES,melting point,Ki (hCA XII),Ki (hCA I [3]),Ki (hCA IX),Ki (hCA II [4]),fold less active/efficient towards hCA XII than parent compound 3 (hCA XII; ratio of Ki values versus compound 3),Ki (hCA II [1]),Ki (hCA I [2])
"O=c1cc(-c2ccccc2)c2ccc(O)cc2o1 [compound 3, 7-hydroxy-4-phenyl-2H-chromen-2-one]",,,,,,,> 10000 nM,> 10000 nM
"Cc1c(O)ccc2c(-c3ccc(N)cc3)cc(=O)oc12 [compound 4, 4-(4-aminophenyl)-7-hydroxy-8-methyl-2H-chromen-2-one]",,,,,,,> 10000 nM,> 10000 nM
"CC(=O)Oc1ccc2c(-c3ccccc3)cc(=O)oc2c1 [compound 7, 2-oxo-4-phenyl-2H-chromen-7-yl acetate]",129 to 131 °C,734 nM,> 10000 nM,56.2 nM,> 10000 nM,,,
"CCC(=O)Oc1ccc2c(-c3ccccc3)cc(=O)oc2c1 [compound 8, 2-Oxo-4-phenyl-2H-chromen-7-yl propionate]",172 to 174 °C,523 nM,> 10000 nM,97.8 nM,> 10000 nM,,,
"O=C(Oc1ccc2c(-c3ccccc3)cc(=O)oc2c1)c1ccccc1 [compound 9, 2-Oxo-4-phenyl-2H-chromen-7-yl benzoate]",,385 nM,> 10000 nM,21.8 nM,> 10000 nM,,,
"CCC(=O)c1c(O)ccc2c(-c3ccccc3)cc(=O)oc12 [compound 11, 7-Hydroxy-4-phenyl-8-propanoyl-2H-chromen-2-one]",172 to 174 °C,868 nM,> 10000 nM,3040 nM,> 10000 nM,10 fold,,
"O=c1cc(-c2ccc([N+](=O)[O-])cc2)c2ccc(O)c(Cl)c2o1 [compound 16, 8-Chloro-7-hydroxy-4-(4-nitrophenyl)-2H-chromen-2-one]",303 to 305 °C,,,,,,,

# Further lines, with some results ahead:
melting point,Ki (hCA XII),Ki (hCA I [3]),Ki (hCA IX),Ki (hCA II [4]),fold less active/efficient towards hCA XII than parent compound 3 (hCA XII; ratio of Ki values versus compound 3),SMILES,Ki (hCA II [1]),Ki (hCA I [2])
,24.9 nM,> 10000 nM,177 nM,> 10000 nM,,"CC(=O)c1c(O)ccc2c(-c3ccccc3)cc(=O)oc12 [compound 10, 8-Acetyl-7-hydroxy-4-phenyl-2H-chromen-2-one]",,
214 to 215 °C,32 nM,> 10000 nM,261 nM,> 10000 nM,,"O=c1cc(-c2ccccc2)c2ccc(O)c(Cl)c2o1 [compound 15, 8-Chloro-7-hydroxy-4-phenyl-2H-chromen-2-one]",,
313 to 315 °C,29.3 nM,> 10000 nM,180 nM,> 10000 nM,,"Nc1ccc(-c2cc(=O)oc3c(Cl)c(O)ccc23)cc1 [compound 17, 4-(4-aminophenyl)-8-chloro-7-hydroxy-2H-chromen-2-one]",,

# Reference: paper PMC7717710, “Synthesis, computational studies and assessment of in vitro inhibitory activity of umbelliferon-based compounds against tumour-associated carbonic anhydrase isoforms IX and XII” (Journal of Enzyme Inhibition and Medicinal Chemistry, 2020)
